IC50 data for 25 compounds are collected here from patent US9878986B2, “Compounds for selective histone deacetylase inhibitors, and pharmaceutical composition comprising the same” (CHONG KUN DANG PHARMACEUTICAL CORP., priority 2013, dated 2018).

Each structure is given as a SMILES string.

The target of assay [1] is HDAC1 (Homo sapiens, UniProt Q13547). Description: Test of HDAC activities, HDAC1 Fluorimetric Drug Discovery Assay Kit. The assay is classed as biochemical. On the set-up: purchased Enzolifesciences BML-AK511. Conditions: samples at 100, 1000, 10000 nM; 37° C. 60 minutes; fluorescence Ex 390, Em 460; read-out: HDAC inhibitory activities, HDAC1. The method, then: (§1) The HDAC inhibitory activities of test materials were measured using the HDAC1 Fluorimetric Drug Discovery Assay Kit (Enzolifesciences: BML-AK511) and HDAC6 human recombinant (Calbiochem: 382180). In the HDAC1 assay, the samples were treated with concentrations of 100, 1000, and 10000 nM, and in the HDAC6 assay, the samples were treated with concentrations of 0.1, 1, 10, 100, and 1000 nM. After the treatment of the samples, the samples were reacted at 37° C. for 60 minutes, treated with a developer, and then reacted at 37° C. for 30 minutes. Then, the fluorescence intensity (Ex 390, Em 460) was measured using the FlexStation 3 (Molecular device).

Assay [2] deals with T1, HDAC 6 (Homo sapiens, UniProt Q9UBN7).
T1 sequence (Q9UBN7 1-1215): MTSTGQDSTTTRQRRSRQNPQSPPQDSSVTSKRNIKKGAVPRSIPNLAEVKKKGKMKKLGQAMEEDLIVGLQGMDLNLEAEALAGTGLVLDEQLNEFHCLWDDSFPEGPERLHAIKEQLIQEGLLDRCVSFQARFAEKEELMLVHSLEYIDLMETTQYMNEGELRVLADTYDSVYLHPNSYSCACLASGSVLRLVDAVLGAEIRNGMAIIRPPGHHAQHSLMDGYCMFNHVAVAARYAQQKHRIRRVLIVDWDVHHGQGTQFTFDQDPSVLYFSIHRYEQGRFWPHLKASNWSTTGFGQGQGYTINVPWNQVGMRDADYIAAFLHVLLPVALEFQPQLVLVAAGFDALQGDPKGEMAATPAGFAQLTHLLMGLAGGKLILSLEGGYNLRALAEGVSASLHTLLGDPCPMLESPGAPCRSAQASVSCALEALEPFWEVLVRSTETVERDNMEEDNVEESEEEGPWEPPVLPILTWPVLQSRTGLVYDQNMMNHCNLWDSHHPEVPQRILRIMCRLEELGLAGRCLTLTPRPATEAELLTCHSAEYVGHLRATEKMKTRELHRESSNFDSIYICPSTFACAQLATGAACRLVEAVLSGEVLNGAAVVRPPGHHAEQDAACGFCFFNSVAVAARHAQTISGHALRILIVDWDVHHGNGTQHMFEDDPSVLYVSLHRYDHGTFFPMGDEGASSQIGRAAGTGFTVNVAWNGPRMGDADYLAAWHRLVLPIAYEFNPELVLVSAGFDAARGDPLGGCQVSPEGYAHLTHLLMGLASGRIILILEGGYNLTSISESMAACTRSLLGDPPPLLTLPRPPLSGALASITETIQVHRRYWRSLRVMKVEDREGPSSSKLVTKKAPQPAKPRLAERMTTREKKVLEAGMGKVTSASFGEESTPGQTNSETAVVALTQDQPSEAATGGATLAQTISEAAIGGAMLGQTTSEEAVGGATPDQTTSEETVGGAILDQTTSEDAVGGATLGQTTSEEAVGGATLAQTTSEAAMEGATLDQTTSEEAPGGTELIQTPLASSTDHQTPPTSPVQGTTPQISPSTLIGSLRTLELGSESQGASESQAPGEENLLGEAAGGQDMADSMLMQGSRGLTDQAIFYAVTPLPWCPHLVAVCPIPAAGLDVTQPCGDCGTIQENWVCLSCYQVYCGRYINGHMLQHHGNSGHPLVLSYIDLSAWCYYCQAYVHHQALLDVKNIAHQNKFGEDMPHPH
Description: Test of HDAC activities, HDAC6 (fluorimetric). The assay is classed as biochemical. The arrangement: purchased Calbiochem 382180. Conditions: samples at 0.1, 1, 10, 100, 1000 nM; 37° C. 60 minutes; fluorescence Ex 390, Em 460; read-out: HDAC inhibitory activities, HDAC6. How it is done:
as §1

Chain of HDAC1 (Q13547 whole entry): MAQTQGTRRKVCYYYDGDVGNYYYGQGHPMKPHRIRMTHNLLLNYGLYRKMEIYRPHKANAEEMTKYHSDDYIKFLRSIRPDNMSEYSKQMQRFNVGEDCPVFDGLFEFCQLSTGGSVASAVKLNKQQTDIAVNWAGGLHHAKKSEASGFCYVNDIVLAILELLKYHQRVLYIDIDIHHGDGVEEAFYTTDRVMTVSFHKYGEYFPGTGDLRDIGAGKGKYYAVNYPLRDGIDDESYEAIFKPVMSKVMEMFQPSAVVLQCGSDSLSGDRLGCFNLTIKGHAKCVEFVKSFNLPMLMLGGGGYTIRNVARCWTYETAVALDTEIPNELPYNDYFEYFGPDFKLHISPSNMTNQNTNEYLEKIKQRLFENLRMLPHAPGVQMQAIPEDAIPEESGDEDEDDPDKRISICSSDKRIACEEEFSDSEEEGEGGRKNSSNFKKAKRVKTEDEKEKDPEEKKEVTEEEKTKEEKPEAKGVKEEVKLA

Regarding `Cn1ncc2cc(-c3cccc(N(Cc4ccc(C(=O)NO)cc4)C(=O)N4CCOCC4)c3)ccc21` [Compound 252, N-(4-(hydroxycarbamoyl)benzyl)-N-(3-(1-methyl-1H-indazol-5-yl)phenyl)morpholine-4-carboxamide], the IC50 in assay [1] worked out at 151 nM; in assay [2], 6 nM.

As to `CN1CCN(C(=O)N(Cc2ccc(C(=O)NO)cc2)c2cccc(Br)c2)CC1` [Compound 256, N-(3-bromophenyl)-N-(4-(hydroxycarbamoyl)benzyl)-4-methylpiperazine-1-carboxamide], the results for the IC50 in assay [1] and in assay [2] were 148 nM and 1 nM, respectively. `Cn1ncc2cc(-c3cccc(N(Cc4ccc(C(=O)NO)cc4)C(=O)N4CCCCC4)c3)ccc21` [Compound 260, N-(4-(hydroxycarbamoyl)benzyl)-N-(3-(1-methyl-1H-indazol-5-yl)phenyl)piperidine-1-carboxamide]: the results for the IC50 in assay [1] and in assay [2] were 551 nM and 7 nM, respectively. For `O=C(NO)c1ccc(CN(C(=O)N2CCOCC2)c2cccc(-c3ccc4cc[nH]c4c3)c2)cc1` [Compound 261, N-(3-(1H-indol-6-yl)phenyl)-N-(4-(hydroxycarbamoyl)benzyl)morpholine-4-carboxamide], in that order: 72 nM and 2 nM. Consider `O=C(NO)c1ccc(CN(C(=O)N2CCOCC2)c2cccc(-c3cccnc3)c2)cc1` [Compound 262, N-(4-(hydroxycarbamoyl)benzyl)-N-(3-(pyridin-3-yl)phenyl)morpholine-4-carboxamide], for which the IC50 was found to be 164 nM in assay [1] and 1 nM in assay [2].

For `O=C(NO)c1ccc(CN(C(=O)N2CCOCC2)c2cccc(-c3ccc4[nH]ccc4c3)c2)cc1` [Compound 263, N-(3-(1H-indol-5-yl)phenyl)-N-(4-(hydroxycarbamoyl)benzyl)morpholine-4-carboxamide], the values for the IC50 in assay [1] and in assay [2] were 75 nM and 2 nM, respectively. For `O=C(NO)c1ccc(CN(C(=O)N2CCOCC2)c2ccccc2)cc1` [Compound 279, N-(4-(hydroxycarbamoyl)benzyl)-N-phenylmorpholine-4-carboxamide], in that order: 292 nM and 1 nM.

On to `O=C(NO)c1ccc(CN(C(=O)N2CCOCC2)c2ccccn2)cc1` [Compound 280, N-(4-(hydroxycarbamoyl)benzyl)-N-(pyridin-2-yl)morpholine-4-carboxamide], for which the IC50 in assay [1] is 1260 nM; in assay [2], 5 nM. For `O=C(NO)c1ccc(CN(C(=O)N2CCOCC2)c2cccnc2)cc1` [Compound 281, N-(4-(hydroxycarbamoyl)benzyl)-N-(pyridin-3-yl)morpholine-4-carboxamide], in that order: 3910 nM and 27 nM. Regarding `O=C(NO)c1ccc(CN(C(=O)N2CCN(Cc3ccccc3)CC2)c2ncccn2)cc1` [Compound 309, 4-benzyl-N-(4-(hydroxycarbamoyl)benzyl)-N-(pyrimidin-2-yl)piperazine-1-carboxamide], the IC50 in assay [2] amounted to 3 nM. With `O=C(NO)c1ccc(CN(C(=O)N2CCC(O)(c3ccccc3)CC2)c2ncccn2)cc1` [Compound 311, 4-hydroxy-N-(4-(hydroxycarbamoyl)benzyl)-4-phenyl-N-(pyrimidin-2-yl)piperidine-1-carboxamide], the IC50 in assay [1] stood at 22900 nM; in assay [2], 13 nM. For `O=C(NO)c1ccc(CN(C(=O)N2CCOCC2)c2ncccn2)cc1` [Compound 312, N-(4-(hydroxycarbamoyl)benzyl)-N-(pyrimidin-2-yl)morpholine-4-carboxamide], in that order: 22700 nM and 7 nM.

In the case of `CC1CN(C(=O)N(Cc2ccc(C(=O)NO)cc2)c2ncccn2)CC(C)O1` (stereo not shown) [Compound 313, N-(4-(hydroxycarbamoyl)benzyl)-2,6-dimethyl-N-(pyrimidin-2-yl)morpholine-4-carboxamide], the IC50 in assay [1] came out at 35900 nM; in assay [2] it was 7 nM.

Turning to `O=C(NO)c1ccc(CN(C(=O)N2CC=C(c3ccccc3)CC2)c2ccccn2)cc1` [Compound 352, N-(4-(hydroxycarbamoyl)benzyl)-4-phenyl-N-(pyridin-2-yl)-5,6-dihydropyridine-1(2H)-carboxamide], the IC50 in assay [1] was found to be 4620 nM; in assay [2], 7 nM.

On to `CN1CCN(C(=O)N(Cc2ccc(C(=O)NO)cc2)c2ccccn2)CC1` [Compound 353, N-(4-(hydroxycarbamoyl)benzyl)-4-methyl-N-(pyridin-2-yl)piperazine-1-carboxamide], for which the IC50 in assay [1] is 4530 nM; in assay [2] it was 10 nM. For `CCN1CCN(C(=O)N(Cc2ccc(C(=O)NO)cc2)c2ccccn2)CC1` [Compound 354, 4-ethyl-N-(4-(hydroxycarbamoyl)benzyl)-N-(pyridin-2-yl)piperazine-1-carboxamide] the same measures were 3910 nM and 9 nM. For `O=C(NO)c1ccc(CN(C(=O)N2CCN(Cc3ccccc3)CC2)c2ccccn2)cc1` [Compound 355, 4-benzyl-N-(4-(hydroxycarbamoyl)benzyl)-N-(pyridin-2-yl)piperazine-1-carboxamide] the same measures were 2340 nM and 5 nM. As for `COc1ccccc1N1CCN(C(=O)N(Cc2ccc(C(=O)NO)cc2)c2ccccn2)CC1` [Compound 356, N-(4-(hydroxycarbamoyl)benzyl)-4-(2-methoxyphenyl)-N-(pyridin-2-yl)piperazine-1-carboxamide], the IC50 in assay [1] worked out at 3820 nM; in assay [2], 4 nM. For the compound `O=C(NO)c1ccc(CN(C(=O)N2CCN(c3ccc(F)cc3)CC2)c2ccccn2)cc1` [Compound 357, 4-(4-fluorophenyl)-N-(4-(hydroxycarbamoyl)benzyl)-N-(pyridin-2-yl)piperazine-1-carboxamide], the values for the IC50 in assay [1] and in assay [2] were 3280 nM and 3 nM, respectively. For `O=C(NO)c1ccc(CN(C(=O)N2CCCC2)c2ccccn2)cc1` [Compound 358, N-(4-(hydroxycarbamoyl)benzyl)-N-(pyridin-2-yl)pyrrolidine-1-carboxamide] the same measures were 4170 nM and 9 nM.

In the case of `O=C(NO)c1ccc(CN(C(=O)N2CCOCC2)c2nc(-c3ccccc3)cs2)cc1` [Compound 370, N-(4-(hydroxycarbamoyl)benzyl)-N-(4-phenylthiazol-2-yl)morpholine-4-carboxamide], the IC50 in assay [1] was 710 nM; in assay [2], 1 nM. For `O=C(NO)c1ccc(CN(C(=O)N2CCOCC2)c2nc(-c3ccc(Cl)cc3)cs2)cc1` [Compound 371, N-(4-(4-chlorophenyl)thiazol-2-yl)-N-(4-(hydroxycarbamoyl)benzyl)morpholine-4-carboxamide] the same measures were 1330 nM and 20 nM. In the case of `CN1CCCN(C(=O)N(Cc2ccc(C(=O)NO)cc2)c2ccccn2)CC1` [Compound 376, N-(4-(hydroxycarbamoyl)benzyl)-4-methyl-N-(pyridin-2-yl)-1,4-diazepane-1-carboxamide], the IC50 in assay [2] was determined as 4 nM. For the compound `O=C(NO)c1ccc(CN(C(=O)N2CCC2)c2ccccn2)cc1` [Compound 377, N-(4-(hydroxycarbamoyl)benzyl)-N-(pyridin-2-yl)azetidine-1-carboxamide], the IC50 in assay [2] was 5 nM. On the same count and under the same terms, to `Cc1ccc(N2CCN(C(=O)N(Cc3ccc(C(=O)NO)cc3)c3ccccn3)CC2)cc1C` [Compound 379, 4-(3,4-dimethylphenyl)-N-(4-(hydroxycarbamoyl)benzyl)-N-(pyridin-2-yl)piperazine-1-carboxamide] belongs 4 nM.
